This note sets out measurements from patent publication US10981904B2, “1,3,4-thiadiazole compounds and their use in treating cancer” (Cancer Research Technology Limited, priority 2015, dated 2021).

Each structure is given as a SMILES string.

This experiment deals with NCI-H1703 cells. As to the kind of experiment: GLS Cell Proliferation Assay (NCI-H1703 cell proliferation). Format: cell-based. The following applies: Homo sapiens, NCI-H1703, 120 h, NCI-H1703 cells, 5 days; read-out: Assay c) Prolif Mean IC50. From the text:
The following assays were used to measure the effects of the compounds described herein: a) GLS Enzyme Potency Assay; b) GLS Cell Potency Assay; c) GLS Cell Proliferation Assay. During the description of the assays, generally: • i. The following abbreviations have been used: CO2=Carbon dioxide; DMEM=Dulbecco's Modified Eagle Medium; DMSO=Dimethyl sulphoxide; EDTA=Ethylenediaminetetraacetic acid; EGTA=Ethylene glycol tetraacetic acid; FCS=Foetal calf serum; h=Hour(s); NBS=Non-binding surface; SDS=Sodium dodecyl sulphate; TRIS=Tris(Hydroxymethyl)aminomethane. • ii. IC50 values were calculated using a smart fitting model in Genedata.
Assay c): GLS Cell Proliferation Assay
The ability of compounds to inhibit cell growth was measured using a 384 well plate NCI-H1703 cell proliferation assay. NCI-H1703 cells were grown in phenol red free RPMI1640, 10% FCS and 2 mM glutamine and seeded at a density of 750 cells per well in 40 μl of growth medium into clear-bottom 384 well assay plates (Corning product code 3712) and incubated for 24 h at 37° C., 5% CO2. […] DMSO concentration was maintained at 0.3% by back filling with DMSO solution. Plates were incubated for 5 days at 37° C., 5% CO2, Sytox Green and Saponin added to final concentration of 2 μM and 0.25% respectively and incubated for 6 h prior to analysis. […] IC50 values were calculated by curve fitting to max inhibition of day zero growth using GeneData software analysis.
As for `COC1CN(c2cccc([C@H](OC)C(=O)Nc3nnc(N[C@@H]4CCN(c5cccnn5)C4)s3)c2)C1` (single isomer, unassigned) [3(b)], the concentration for half-maximal inhibition (IC50) worked out at 0.272 µM.

As for `COc1cc(OC)cc([C@H](OC)C(=O)Nc2nnc(N[C@@H]3CCN(c4ccc(C)nn4)C3)s2)c1` (single isomer, unassigned) [4(b)], the IC50 is 0.0273 µM.

In the case of `CO[C@H](C(=O)Nc1nnc(N[C@@H]2CCN(c3cccnn3)C2)s1)c1ccc(F)c(N2CC(F)C2)c1` (single isomer, unassigned) [8(b)], the IC50 is 0.0385 µM.

On to `CO[C@H](C(=O)Nc1nnc(N[C@@H]2CCN(c3cccnn3)C2)s1)c1cccc(C2COC2)c1` (single isomer, unassigned) [18(b)], for which the half-inhibitory concentration (IC50) is 0.699 µM.

On to `COC[C@H](C(=O)Nc1nnc(N[C@@H]2CCN(c3ccc(C)nn3)C2)s1)c1ccccc1` (single isomer, unassigned) [45(b)], for which the 50% inhibitory concentration (IC50) is 0.00922 µM.

Regarding `CO[C@H](C(=O)Nc1nnc(N[C@@H]2CCN(c3cccnn3)C2)s1)c1cccc(N2CC(F)C2)c1` (single isomer, unassigned) [Example 1(a)], the IC50 was determined as 0.00255 µM.

Turning to `CO[C@H](C(=O)Nc1nnc(N[C@@H]2CCN(c3cccnn3)C2)s1)c1cccc(N2CC(F)C2)c1` (single isomer, unassigned) [Example 1(b)], the concentration for half-maximal inhibition (IC50) worked out at 0.133 µM.

In the case of `COC1CN(c2cccc([C@H](OC)C(=O)Nc3nnc(N[C@@H]4CCN(c5cccnn5)C4)s3)c2)C1` (single isomer, unassigned) [Example 3(a)], the half-inhibitory concentration (IC50) worked out at 0.00265 µM.

Turning to `COc1cc(OC)cc([C@H](OC)C(=O)Nc2nnc(N[C@@H]3CCN(c4ccc(C)nn4)C3)s2)c1` (single isomer, unassigned) [Example 4(a)], the half-inhibitory concentration (IC50) was 0.00295 µM.

For the compound `COC(C(=O)Nc1nnc(N[C@@H]2CCN(c3cccnn3)C2)s1)c1cccc(C2COC2)c1` (single isomer, unassigned) [Example 18(a)], the IC50 was determined as 0.0135 µM.

As for `COCC(C(=O)Nc1nnc(N[C@@H]2CCN(c3ccc(C)nn3)C2)s1)c1ccccc1` (single isomer, unassigned) [Example 45(a)], the IC50 was 2.27 µM.

With `COC(C(=O)Nc1nnc(N[C@@H]2CCN(c3ccc(F)nn3)C2)s1)c1cccc(N2CC(F)(F)C2)c1` (stereo partly drawn) [Example 42, 2-[3-(3,3-difluoroazetidin-1-yl)phenyl]-N-[5-[[(3R)-1-(6-fluoropyridazin-3-yl)pyrrolidin-3-yl]amino]-1,3,4-thiadiazol-2-yl]-2-methoxy-acetamide], the IC50 worked out at 0.0815 µM.
